Legend:
mice = assay: Acute toxicity test in mice (Experiment 3); format: in vivo
Method: Acute toxicity test of 2-O-octadecylascorbic acid
2-O-octadecylascorbic acid was tested for the acute toxicity test in mice. As a result, no mouse died even in oral administration of 1000 mg/kg. This compound has therefore low toxicity.

retina (ERG in rats) [1] = assay: ERG in rats after light exposure for 3 days (Experiment 2 (B-2), Method 1); format: in vivo; conditions: 5.0% suspension, oral 200 mg/kg/day on day of light exposure, 100 mg/kg/day other days; light 3 days
Method: FIG. 4 is a graph showing the b-wave amplitude of ERG in rats after light exposure for 3 days in Experiment 2 (B-2)(Method 1). The abscissa indicates time (day) after light exposure and the ordinate indicates b-wave amplitude (mv).
(B-2) Evaluation by ERG determination
Rats were subjected to dark adaptation for 24 hours. Continuous light exposure for 20 hours was repeated for 3 successive days using a green fluorescent lamp (490-580 nm), the illumination intensity of which was adjusted to 600 to 700 lux. ERG was measured for 3 successive days after dark adaptation for 2 hours after completion of everyday light exposure. After that, the rats were reared in a dark room, and ERG was measured on the 7th day after the light exposure, and evaluated for the amplitude of a-wave and b-wave and the latency of a-wave. From the day before the light exposure, a 5.0% 2-O-octadecylascorbic acid suspension or 5.0% gum arabic solution (control) was orally administered twice a day (200 mg/kg/day) on the day of the light exposure and once a day (100 mg/kg/day) on other days.

retina (ERG in rats) [2] = assay: ERG in rats after light exposure for 20 hours (Experiment 2 (B-2), Method 2); format: in vivo; conditions: 5.0% suspension, light 20 hours
Method: FIG. 5 is a graph showing the a-wave latency of ERG in rats after light exposure for 20 hours in Experiment 2 (B-2)(Method 2). The abscissa indicates time (day) after light exposure and the ordinate indicates a-wave latency (msec).
(B-2) Evaluation of ERG determination
Rats were subjected to dark adaptation for 12 hours and irradiated with light for 20 successive hours under the same conditions as those of (Method-1). After subjecting them to dark adaptation for 2 hours, ERG was determined. A 5.0% 2-O-octadecylascorbic acid suspension or 5.0% gum arabic solution (control) was orally administered once a day (100 mg/kg/day) from 7 days before the light exposure and twice a day (200 mg/kg/day) only on the day of the light exposure.

retinal rhodopsin = assay: Retinal light damage in rats, retinal rhodopsin amount (Experiment 2 (B-1)); format: in vivo; conditions: for Amount of retinal rhodopsin: mean ± S.D.
Method: (B) In vivo experiment by light exposure in rats
(B-1) Evaluation by retinal pathological tissues and rhodopsin amount
Rats were subjected to dark adaptation for 72 hours. Then the rats were irradiated continuously for 12 hours using a green fluorescent lamp (10 W, 490-580 nm), the illumination intensity of which was adjusted to 2000 to 2400 lux. A suspension of 1.5% or 5.0% 2-O-octadecylascorbic acid was orally administered three times a day (90, 300 mg/kg/day) on the day of light exposure, and once a day (30, 100 mg/kg/day) after that. To the control group was administered 5.0% gum arabic solution (control) according to the same schedule. After completion of the light exposure, the rats were reared in a dark room and sacrificed on the 5th day. The right eyes were marked with ink in the upper part and fixed with 2% paraformaldehyde and 2% glutaraldehyde solutions. Histopathological evaluation was made using a light microscope and the thickness of retinae (thickness of retinal entire layer and outer nuclear layer) was measured. The left eyes were stored under freezing conditions at -20° C. for rhodopsin determination after removal of the cornea, lens and vitreous body.
Rhodopsin was determined as follows. Firstly, the optic cup was sliced under a red lamp in a dark room, and retinal homogenates were prepared using 0.1M phosphate buffer (pH 7.2). After centrifugation at 15,000 rpm for 15 minutes, the precipitation was treated with 4% potassium alum solution. After washing, rhodopsin was extracted with 1% Emulphogen BC-720 (trade mark). The absorbance at 500 nm was measured using the centrifuged supernatant as the sample. The sample was bleached by light exposure with a yellow lamp for 5 minutes. The absorbance at 500 nm was measured again. The rhodopsin amount was calculated from the difference between the absorbances before and after the bleach (molar absorption coefficient: 42,000).

[3] = test system: bovine retinal homogenates; assay: Peroxidation of bovine retinal homogenate by light exposure in presence of hematoporphyrin, TBA value (Experiment 2 (A)); format: biochemical; conditions: 10^-4 M
Method: (A) In vitro experiment using bovine retinal homogenates
Antioxidative effects of 2-O-octadecylascorbic acid on peroxidation caused by light exposure of bovine retinal homogenates in the presence of hematoporphyrin (hereinafter referred to as HPP) were examined.
(1) HPP (100 μM, dissolved in ethanol), 2-O-octadecylascorbic acid (10^-4 M) and water were added to a retinal homogenate prepared by the same manner as that of the above Experiment 1 (A) Method (1). The mixture was irradiated with a fluorescent lamp (daylight lamp, 15 W, 3000 lux) from 20 cm above for 1 hour. The final concentration of ethanol in the reaction mixture was adjusted to 2%.
(2) One hour after the light exposure, according to the same manner as that of the above Experiment 1 (A) Method (3), lipidperoxides were determined by the TBA reaction and proteins were determined using Bio-Rad Protein Assay Kit (trade name).

Structure (SMILES): CCCCCCCCCCCCCCCCCCOC1=C(O)[C@@H]([C@@H](O)CO)OC1=O [2-O-octadecylascorbic acid]
- toxicity (mice; acute toxicity, mice, oral): low toxicity
- mortality (mice; mouse, in vivo, po, 1000 mg/kg): no mouse died
- decrease of the b-wave amplitude (retina (ERG in rats) [1]): the tendency to inhibit the decrease of the b-wave amplitude was observed
- delay of the a-wave latency (retina (ERG in rats) [2]; oral 100 mg/kg/day from 7 days before, 200 mg/kg/day on day of light exposure): significantly inhibited the delay of the a-wave latency
- amplitude of a-wave and b-wave (retina (ERG in rats) [2]; both groups): decreased in both groups
- Amount of retinal rhodopsin (retinal rhodopsin; 1.5% suspension, n=5): 0.51 ± 0.20 nM/eye
- Amount of retinal rhodopsin (retinal rhodopsin; 5.0% suspension, n=3): 0.69 ± 0.14 nM/eye
- decrease of the amount of rhodopsin by light exposure (in words) (retinal rhodopsin; suspension administered groups): the tendency to inhibit the decrease of the amount of rhodopsin by light exposure was observed
- inhibitory effect on light-induced peroxidation [3]: significant inhibitory effect was observed
- Retina: TBA value ([3]; HPP 100 μM, light 3000 lux 1 hour, mean ± S.D., n=3, p < 0.001 vs control): 1.31 ± 0.21 nM malondialdehyde/mg protein

From patent publication US5665769A, “Pharmaceutical composition for preventing and treating retinal diseases” (Senju Pharmaceuticals Co., Ltd., priority 1993, dated 1997)
